{
  "source": "paper PMC12259270",
  "about": "“Sensory neuron–expressed FGF13 controls nociceptive signaling in diabetic neuropathy models” (The Journal of Clinical Investigation, 2025)",
  "system": "Na+ currents in hIPSC-derived sensory neurons (RealDRG)",
  "assay": "Whole-cell voltage clamp, hIPSC-derived sensory neurons (RealDRG) with Nav1.7 blocker ProTx-II",
  "type": "cell-based, human",
  "conditions": "for Activation / Peak Density / Steady-State inactivation / Tau (τ) / Long-term inactivation, 2nd Pulse / Long-term inactivation, 3rd Pulse / Long-term inactivation, 4th Pulse: RealDRG",
  "method": "Next, we conducted whole-cell patch-clamp electrophysiological recordings in hIPSC-derived sensory neurons under three conditions: unstimulated and treated with 0.07% ethanol (capsaicin vehicle), treated with capsaicin (100 nM, 10 minutes), and treated with capsaicin plus SB-366791 (10 μM), a selective TRPV1 inhibitor. Each group was exposed to either vehicle (0.01% DMSO) or PW164 (50 μM), with all recordings performed in the presence of the Nav1.8 blocker A-803467 (300 nM) ([41]). The experimental groups are color coded in Figure 2A. Capsaicin caused potentiation of INa (Figure 2A) and induced hyperpolarizing shifts in the V1/2 of activation (Figure 2B) and SSI (Figure 2C). […] Next, we investigated whether silencing FGF13 could replicate PW164’s effects and prevent additional activity of the compound. hIPSC-derived sensory neurons were transfected with a previously validated pAAV-shFGF13-GFP construct ([42]) (Supplemental Figure 8). […] Neither PW164 nor FGF13 silencing affected Na+ currents in neurons transfected with pAAV-shCTRL-GFP or pAAV-shFGF13-GFP, whether unstimulated or treated with capsaicin in the presence of ProTx II (Supplemental Figure 9 and Supplemental Table 6). Thus, PW164 selectively modulated FGF13-dependent Na^+ current sensitization via TRPV1, with FGF13 silencing mimicking and validating PW164’s effect. […]\nWhole-cell patch clamp electrophysiology\nHEK293-Nav1.7 cells, HEK293 stably expressing human Nav1.6 (HEK-Nav1.6), HEK293 stably expressing human Nav1.5 (HEK-Nav1.5), human hIPSC-derived sensory neurons (RealDRGTM from Anatomic Incorporated 1020F1-1M) and donor-derived DRG neurons were plated at low density on glass coverslips and processed for whole-cell patch clamp electrophysiology in voltage-clamp and/or current clamp mode. Whole-cell patch electrophysiological experiments were conducted following previously published studies (26). Current densities were obtained by dividing INa amplitude by membrane capacitance. Current –voltage relationships were generated by plotting current density as a function of the […]. Conductance (G Na) was calculated by the […]\nwhere INa is the current amplitude at voltage Vm, and Erev is the Na+ reversal potential.\nActivation curves were derived by plotting normalized GNa as a function of test potential and fitted using […]\nWhere GNa,Max is the maximum conductance, Va is the membrane potential of half-maximal activation, Em is the membrane voltage and k is the slope factor. For steady -state inactivation, normalized current amplitude (INa/INa,Max) at the test potential was plotted as a function of prepulse potential (Vm) and fitted using the […]\nWhere Vh is the potential of half-maximal inactivation, E m is the membrane voltage, and k is the slope factor.\nTransient INa inactivation decay was estimated with the standard exponential equation. Inactivation time constant (tau, τ) was fitted with the following equation: […]\nwhere I(t) is the amplitude of the current at time t and Iss is the steady-state current during a single voltage-step.\nThe goodness of fitting was determined by correlation coefficient (R), and the cutoff of R was set at 0.85. To observe effects on long-term inactivation (LTI), a four-step protocol was employed during which cells were subjected to four 0 mV, 20 ms depolarization pulses separated by −90 mV, 40 ms recovery intervals. To control for various cell sizes, the current densities were calculated by dividing INa peak current amplitude/membrane capacitance (Cm). To represent the fraction of channels entering into LTI, the peak INa observed during depolarization cycles 2-4 was normalized to the peak INa observed during depolarization cycle 1 (INa/INa,Cycle 1) and plotted as a function of the depolarization cycle.\nThe cumulative (frequency-dependent) use-dependency was determined by applying 20 pulses with a depolarization to −10 mV (50 ms duration) and 50 ms recovery intervals with a train of 20 pulses at 10 Hz from a holding potential at -70 mV. […]",
  "key": {"[1]": {"conditions": "+ Nav1.7 blocker ProTx-II, Cap+ - PW164"}, "[2]": {"conditions": "+ Nav1.7 blocker ProTx-II, Cap+ PW164"}, "[3]": {"conditions": "+ Nav1.7 blocker ProTx-II, Naïve + PW164"}, "[4]": {"conditions": "+ Nav1.7 blocker ProTx-II, Naïve - PW164"}, "[5]": {"conditions": "+ Nav1.7 blocker ProTx-II, Naive + ZL192"}, "[6]": {"conditions": "+ Nav1.7 blocker ProTx-II, Naïve + ZL192"}},
  "note": "Residues, ends and D or L forms follow the SMILES beside them. *: point of attachment. Cbz = O=C(OCc1ccccc1)*; NHPh = c1ccc(N*)cc1; OtBu = CC(C)(C)O*",
  "data": [
    {"smiles": "COC(=O)[C@@H](NC(=O)[C@H](CCC(=O)OC(C)(C)C)NC(=O)[C@H](CC(C)C)NC(=O)[C@@H]1CCCN1C(=O)OCc1ccccc1)C(C)C", "note": "[PW164] (Cbz-PLE(OtBu)V-OMe)", "values": [
      {"measurement": "effect on capsaicin-potentiated Na+ currents with ProTx-II", "setting": "ProTx-II 10 nM, Suppl Fig 7", "value": "does not have any effect"},
      {"measurement": "Activation", "setting": "[1]", "value": "−29.15 ± 0.86", "unit": "mV"},
      {"measurement": "Peak Density", "setting": "[1]", "value": "−80.16 ± 8.05", "unit": "pA/pF"},
      {"measurement": "Steady-State inactivation", "setting": "[1]", "value": "−61.95 ± 1.29", "unit": "mV"},
      {"measurement": "Tau (τ)", "setting": "[1]", "value": "0.98 ± 0.08", "unit": "ms"},
      {"measurement": "Long-term inactivation, 2nd Pulse", "setting": "[2]", "value": "−118.43 ± 3.81", "unit": "% maximal Na+ current"},
      {"measurement": "Long-term inactivation, 3rd Pulse", "setting": "[2]", "value": "−120.42 ± 4.69", "unit": "% maximal Na+ current"},
      {"measurement": "Long-term inactivation, 2nd Pulse", "setting": "[3]", "value": "−105.72 ± 2.72", "unit": "% maximal Na+ current"},
      {"measurement": "Long-term inactivation, 3rd Pulse", "setting": "[3]", "value": "−110.76 ± 2.72", "unit": "% maximal Na+ current"},
      {"measurement": "Long-term inactivation, 4th Pulse", "setting": "[3]", "value": "−113.94 ± 3.54", "unit": "% maximal Na+ current"},
      {"measurement": "Activation", "setting": "[4]", "value": "−29.68 ± 1.17", "unit": "mV"},
      {"measurement": "Peak Density", "setting": "[4]", "value": "−76.99 ± 6.01", "unit": "pA/pF"},
      {"measurement": "Steady-State inactivation", "setting": "[4]", "value": "−61.23 ± 1.29", "unit": "mV"},
      {"measurement": "Tau (τ)", "setting": "[4]", "value": "0.87 ± 0.04", "unit": "ms"}
    ]},
    {"smiles": "CC(=O)N[C@@H](Cc1ccccc1)C(=O)N[C@@H](CC(C)C)C(=O)N1CCC[C@H]1C(=O)N[C@@H](CCCCN)C(=O)Nc1ccccc1", "note": "[ZL192] (Ac-FLPK-NHPh)", "values": [
      {"measurement": "UseDependency (Suppl. Figure S14D)", "setting": "Control cells, pulse 1", "value": 1},
      {"measurement": "UseDependency (Suppl. Figure S14D)", "setting": "Control cells, pulse 3", "value": 0.9097},
      {"measurement": "UseDependency (Suppl. Figure S14D)", "setting": "Control cells, pulse 5", "value": 0.8784},
      {"measurement": "UseDependency (Suppl. Figure S14D)", "setting": "Control cells, pulse 10", "value": 0.8714},
      {"measurement": "UseDependency (Suppl. Figure S14D)", "setting": "Control cells, pulse 15", "value": 0.8646},
      {"measurement": "UseDependency (Suppl. Figure S14D)", "setting": "Control cells, pulse 20", "value": 0.8556},
      {"measurement": "UseDependency (Suppl. Figure S14D)", "setting": "Naive cells, pulse 1", "value": 1},
      {"measurement": "UseDependency (Suppl. Figure S14D)", "setting": "Naive cells, pulse 3", "value": 0.9097},
      {"measurement": "UseDependency (Suppl. Figure S14D)", "setting": "Naive cells, pulse 5", "value": 0.8778},
      {"measurement": "UseDependency (Suppl. Figure S14D)", "setting": "Naive cells, pulse 10", "value": 0.8143},
      {"measurement": "UseDependency (Suppl. Figure S14D)", "setting": "Naive cells, pulse 15", "value": 0.7732},
      {"measurement": "UseDependency (Suppl. Figure S14D)", "setting": "Naive cells, pulse 20", "value": 0.7489},
      {"measurement": "Activation", "setting": "[5]", "value": "−27.64 ± 0.93", "unit": "mV"},
      {"measurement": "Peak Density", "setting": "[5]", "value": "−96.53 ± 4.85", "unit": "pA/pF"},
      {"measurement": "Steady-State inactivation", "setting": "[5]", "value": "−59.34 ± 1.61", "unit": "mV"},
      {"measurement": "Tau (τ)", "setting": "[5]", "value": "1.33 ± 0.06", "unit": "ms"},
      {"measurement": "Long-term inactivation, 2nd Pulse", "setting": "[6]", "value": "−99.26 ± 0.91", "unit": "% maximal Na+ current"},
      {"measurement": "Long-term inactivation, 3rd Pulse", "setting": "[6]", "value": "−100.38 ± 1.08", "unit": "% maximal Na+ current"},
      {"measurement": "Long-term inactivation, 4th Pulse", "setting": "[6]", "value": "−100.45 ± 1.3", "unit": "% maximal Na+ current"},
      {"measurement": "Activation", "setting": "+ ProTx-II, Control + ZL192", "value": "−30.93 ± 0.89", "unit": "mV"},
      {"measurement": "Long-term inactivation, 2nd Pulse", "setting": "+ ProTx-II, Control + ZL192", "value": "−98.61 ± 0.74", "unit": "% maximal Na+ current"},
      {"measurement": "Long-term inactivation, 3rd Pulse", "setting": "+ ProTx-II, Control + ZL192", "value": "−99.17 ± 0.84", "unit": "% maximal Na+ current"},
      {"measurement": "Long-term inactivation, 4th Pulse", "setting": "+ ProTx-II, Control + ZL192", "value": "−98.95 ± 1.01", "unit": "% maximal Na+ current"},
      {"measurement": "Peak Density", "setting": "+ ProTx-II, Control + ZL192", "value": "−101.87 ± 5.35", "unit": "pA/pF"},
      {"measurement": "Steady-State inactivation", "setting": "+ ProTx-II, Control + ZL192", "value": "−53.15 ± 0.91", "unit": "mV"},
      {"measurement": "Tau (τ)", "setting": "+ ProTx-II, Control + ZL192", "value": "1.0 ± 0.04", "unit": "ms"},
      {"measurement": "Activation", "setting": "+ ProTx-II, Sh + ZL192", "value": "−28.74 ± 1.12", "unit": "mV"},
      {"measurement": "Peak Density", "setting": "+ ProTx-II, Sh + ZL192", "value": "−99.91 ± 8.28", "unit": "pA/pF"},
      {"measurement": "Steady-State inactivation", "setting": "+ ProTx-II, Sh + ZL192", "value": "−62.97 ± 1.64", "unit": "mV"},
      {"measurement": "Tau (τ)", "setting": "+ ProTx-II, Sh + ZL192", "value": "1.27 ± 0.08", "unit": "ms"},
      {"measurement": "Long-term inactivation, 2nd Pulse", "setting": "+ ProTx-II, Sh + Zl192", "value": "−96.65 ± 1.81", "unit": "% maximal Na+ current"},
      {"measurement": "Long-term inactivation, 3rd Pulse", "setting": "+ ProTx-II, Sh + Zl192", "value": "−97.25 ± 2.18", "unit": "% maximal Na+ current"},
      {"measurement": "Long-term inactivation, 4th Pulse", "setting": "+ ProTx-II, Sh + Zl192", "value": "−99.23 ± 3.28", "unit": "% maximal Na+ current"},
      {"measurement": "UseDependency (Suppl. Figure S14D)", "setting": "ShFGF13 cells, pulse 1", "value": 1},
      {"measurement": "UseDependency (Suppl. Figure S14D)", "setting": "ShFGF13 cells, pulse 3", "value": 0.9541},
      {"measurement": "UseDependency (Suppl. Figure S14D)", "setting": "ShFGF13 cells, pulse 5", "value": 0.9361},
      {"measurement": "UseDependency (Suppl. Figure S14D)", "setting": "ShFGF13 cells, pulse 10", "value": 0.8879},
      {"measurement": "UseDependency (Suppl. Figure S14D)", "setting": "ShFGF13 cells, pulse 15", "value": 0.8614},
      {"measurement": "UseDependency (Suppl. Figure S14D)", "setting": "ShFGF13 cells, pulse 20", "value": 0.8526},
      {"measurement": "activity on Na+ currents with ProTx-II", "setting": "ZL192 50 μM, ProTx-II 10 nM, Suppl Fig 14", "value": "no activity"}
    ]}
  ]
}
